The results in this text go back to ChEMBL document CHEMBL1201862, “PubChem BioAssay data set” (2004).

Calls of active or inactive are those of the source.

In experiment [1] the target is Cystic fibrosis transmembrane conductance regulator/Golgi-associated PDZ and coiled-coil motif-containing protein (Homo sapiens, UniProt P13569+Q9HD26). Description: CAL PDZ peptide-binding inhibitors, dose response, biochemical, fluorescence polarization, Cerulean-tagged CAL PDZ, cherry-picks (AID 504773). Background: Polarisation of emitted light reports the rotation of a fluorescent probe.

The subject of a further experiment is HEK293. Description: Fluorescence-based counterscreen for potentiators or agonists of NPY-Y2: cell-based high-throughput dose response assay to identify inhibitors of cyclic nucleotide gated ion channel (CNGC) activity. In this assay, the parental HEK293 cell line transfected with a cyclic-nucleotide gated ion channel (CNGC)-based cAMP sensor is used to measure inhibition of isoproterenol-induced CNGC activity by test compound. Format: functional. The note with it: Homo sapiens.

Another experiment addresses T1, Protein skinhead-1 (Caenorhabditis elegans, UniProt P34707).
T1 sequence (P34707 whole entry): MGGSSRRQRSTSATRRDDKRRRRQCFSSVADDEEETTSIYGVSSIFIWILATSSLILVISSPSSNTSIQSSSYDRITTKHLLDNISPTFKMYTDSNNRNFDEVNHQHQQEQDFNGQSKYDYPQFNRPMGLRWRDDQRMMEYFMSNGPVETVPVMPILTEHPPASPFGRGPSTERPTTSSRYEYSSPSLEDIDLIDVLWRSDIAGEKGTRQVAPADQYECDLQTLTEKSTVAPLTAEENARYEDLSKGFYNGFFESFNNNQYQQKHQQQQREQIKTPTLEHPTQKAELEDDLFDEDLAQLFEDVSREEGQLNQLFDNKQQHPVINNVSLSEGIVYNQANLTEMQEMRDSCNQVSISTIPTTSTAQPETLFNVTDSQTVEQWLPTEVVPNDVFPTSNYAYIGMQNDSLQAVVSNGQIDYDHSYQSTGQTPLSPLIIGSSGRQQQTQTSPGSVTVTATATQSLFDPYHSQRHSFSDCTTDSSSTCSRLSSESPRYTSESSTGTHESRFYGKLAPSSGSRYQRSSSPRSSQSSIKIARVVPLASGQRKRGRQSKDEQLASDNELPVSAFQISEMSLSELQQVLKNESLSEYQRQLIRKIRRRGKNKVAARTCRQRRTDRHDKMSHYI
It is filed as functional.

The test system of experiment [2] is Streptococcus sp. 'group A'. Description: growth inhibition of control SK(-) GAS strain, dose response, counter-screen for streptokinase expression inhibitor project, luminescence, kanamycin, BacTiterGlo, confirmation (AID 1900). It is filed as functional, organism-based. In general terms: A counterscreen serves to expose hits that act by an unwanted route or on another target.

Experiment [3] can be described thus: Vero E6 cell cytotoxicity, dose response, cytotoxicity control for non-replicating M. tuberculosis project, secondary assay (AID 492998). Format: functional, VeroE6. The note with it: Vero C1008.
A further experiment has as its target T2, Caspase-3 (Homo sapiens, UniProt P42574).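 Note: Dose-response selectivity test against caspase-3 for candidate inhibitors of sentrin-specific proteases (SENPs).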
T2 sequence (P42574 whole entry): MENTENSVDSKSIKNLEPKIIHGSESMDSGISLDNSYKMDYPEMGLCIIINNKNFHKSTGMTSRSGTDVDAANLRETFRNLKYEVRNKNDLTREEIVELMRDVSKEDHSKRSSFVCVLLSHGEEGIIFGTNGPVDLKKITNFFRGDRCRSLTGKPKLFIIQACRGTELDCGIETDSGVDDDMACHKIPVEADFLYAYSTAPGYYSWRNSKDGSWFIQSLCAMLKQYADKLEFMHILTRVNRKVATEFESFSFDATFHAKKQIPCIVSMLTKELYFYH
It is filed as functional.

Experiment [4] deals with T3, Sentrin-specific protease 7 (Homo sapiens, UniProt Q9BQF6).
T3 sequence (Q9BQF6 whole entry): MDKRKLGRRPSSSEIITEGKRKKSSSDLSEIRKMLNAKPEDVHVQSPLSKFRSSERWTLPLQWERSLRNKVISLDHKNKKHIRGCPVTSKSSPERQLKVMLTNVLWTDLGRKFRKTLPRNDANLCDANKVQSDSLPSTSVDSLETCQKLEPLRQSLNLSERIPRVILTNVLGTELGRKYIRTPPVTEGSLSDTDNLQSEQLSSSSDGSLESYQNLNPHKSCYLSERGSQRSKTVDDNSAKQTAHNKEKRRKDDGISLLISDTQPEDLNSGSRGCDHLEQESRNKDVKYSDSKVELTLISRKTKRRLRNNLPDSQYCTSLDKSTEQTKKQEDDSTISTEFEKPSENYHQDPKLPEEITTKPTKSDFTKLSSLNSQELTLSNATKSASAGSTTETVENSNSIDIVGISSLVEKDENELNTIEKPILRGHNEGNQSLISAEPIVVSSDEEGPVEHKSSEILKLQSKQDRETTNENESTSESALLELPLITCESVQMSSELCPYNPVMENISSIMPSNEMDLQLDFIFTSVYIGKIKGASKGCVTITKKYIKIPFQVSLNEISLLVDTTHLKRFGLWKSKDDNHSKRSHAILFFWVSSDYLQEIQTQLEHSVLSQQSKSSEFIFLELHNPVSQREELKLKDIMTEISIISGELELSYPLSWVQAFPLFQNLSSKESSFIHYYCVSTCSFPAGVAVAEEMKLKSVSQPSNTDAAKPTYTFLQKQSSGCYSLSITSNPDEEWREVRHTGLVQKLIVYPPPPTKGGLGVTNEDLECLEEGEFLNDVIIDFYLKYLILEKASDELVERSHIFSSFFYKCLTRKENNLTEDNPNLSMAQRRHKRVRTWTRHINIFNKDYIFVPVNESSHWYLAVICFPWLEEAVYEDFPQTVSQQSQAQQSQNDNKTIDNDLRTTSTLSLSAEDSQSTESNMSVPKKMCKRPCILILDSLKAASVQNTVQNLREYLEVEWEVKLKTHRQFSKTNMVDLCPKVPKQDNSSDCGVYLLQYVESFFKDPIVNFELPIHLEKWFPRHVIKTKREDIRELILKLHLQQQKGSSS
Format: functional.

For experiment [5], the target named is T4, Sphingosine 1-phosphate receptor 4 (Homo sapiens, UniProt O95977).
T4 sequence (O95977 whole entry): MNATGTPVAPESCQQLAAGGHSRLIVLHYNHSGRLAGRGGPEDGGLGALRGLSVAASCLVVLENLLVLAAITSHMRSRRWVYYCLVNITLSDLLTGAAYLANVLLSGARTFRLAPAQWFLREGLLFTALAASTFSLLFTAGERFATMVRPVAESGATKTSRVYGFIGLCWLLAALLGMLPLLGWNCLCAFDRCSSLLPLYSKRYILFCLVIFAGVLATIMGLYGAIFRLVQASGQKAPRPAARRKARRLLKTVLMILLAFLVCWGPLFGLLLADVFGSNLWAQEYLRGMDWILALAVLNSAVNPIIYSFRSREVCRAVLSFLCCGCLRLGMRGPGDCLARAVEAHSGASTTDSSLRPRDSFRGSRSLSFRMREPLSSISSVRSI
Description: Late stage fluorescence dose response cell-based screening assay for antagonists of the Sphingosine 1-Phosphate Receptor 4 (S1P4). [Related pubchem assays: 1524 (Confirmation screen (S1P4 antagonists).), 1510 (Primary screen (S1P4 antagonists).), 1853 (Summary AID (S1P4 antagonists).), 1692 (Dose response screen (S1P4 antagonists).)]. It is filed as functional.

In experiment [6] the target is Sphingosine 1-phosphate receptor 1 (Homo sapiens, UniProt P21453). Format: functional.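 Note: Tango beta-arrestin reporter U2OS cells stimulated with S1P near its EC80; inhibitor potency meaning antagonism of receptor activation by the natural agonist.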
Experiment [7] in a line: HeLa cell cytotoxicity, dose response, cytotoxicity control for MgcRacGAP inhibitor project (AID 624300). Format: functional.

Cystic fibrosis transmembrane conductance regulator/Golgi-associated PDZ and coiled-coil motif-containing protein, sequence (P13569 whole entry, other chains not shown): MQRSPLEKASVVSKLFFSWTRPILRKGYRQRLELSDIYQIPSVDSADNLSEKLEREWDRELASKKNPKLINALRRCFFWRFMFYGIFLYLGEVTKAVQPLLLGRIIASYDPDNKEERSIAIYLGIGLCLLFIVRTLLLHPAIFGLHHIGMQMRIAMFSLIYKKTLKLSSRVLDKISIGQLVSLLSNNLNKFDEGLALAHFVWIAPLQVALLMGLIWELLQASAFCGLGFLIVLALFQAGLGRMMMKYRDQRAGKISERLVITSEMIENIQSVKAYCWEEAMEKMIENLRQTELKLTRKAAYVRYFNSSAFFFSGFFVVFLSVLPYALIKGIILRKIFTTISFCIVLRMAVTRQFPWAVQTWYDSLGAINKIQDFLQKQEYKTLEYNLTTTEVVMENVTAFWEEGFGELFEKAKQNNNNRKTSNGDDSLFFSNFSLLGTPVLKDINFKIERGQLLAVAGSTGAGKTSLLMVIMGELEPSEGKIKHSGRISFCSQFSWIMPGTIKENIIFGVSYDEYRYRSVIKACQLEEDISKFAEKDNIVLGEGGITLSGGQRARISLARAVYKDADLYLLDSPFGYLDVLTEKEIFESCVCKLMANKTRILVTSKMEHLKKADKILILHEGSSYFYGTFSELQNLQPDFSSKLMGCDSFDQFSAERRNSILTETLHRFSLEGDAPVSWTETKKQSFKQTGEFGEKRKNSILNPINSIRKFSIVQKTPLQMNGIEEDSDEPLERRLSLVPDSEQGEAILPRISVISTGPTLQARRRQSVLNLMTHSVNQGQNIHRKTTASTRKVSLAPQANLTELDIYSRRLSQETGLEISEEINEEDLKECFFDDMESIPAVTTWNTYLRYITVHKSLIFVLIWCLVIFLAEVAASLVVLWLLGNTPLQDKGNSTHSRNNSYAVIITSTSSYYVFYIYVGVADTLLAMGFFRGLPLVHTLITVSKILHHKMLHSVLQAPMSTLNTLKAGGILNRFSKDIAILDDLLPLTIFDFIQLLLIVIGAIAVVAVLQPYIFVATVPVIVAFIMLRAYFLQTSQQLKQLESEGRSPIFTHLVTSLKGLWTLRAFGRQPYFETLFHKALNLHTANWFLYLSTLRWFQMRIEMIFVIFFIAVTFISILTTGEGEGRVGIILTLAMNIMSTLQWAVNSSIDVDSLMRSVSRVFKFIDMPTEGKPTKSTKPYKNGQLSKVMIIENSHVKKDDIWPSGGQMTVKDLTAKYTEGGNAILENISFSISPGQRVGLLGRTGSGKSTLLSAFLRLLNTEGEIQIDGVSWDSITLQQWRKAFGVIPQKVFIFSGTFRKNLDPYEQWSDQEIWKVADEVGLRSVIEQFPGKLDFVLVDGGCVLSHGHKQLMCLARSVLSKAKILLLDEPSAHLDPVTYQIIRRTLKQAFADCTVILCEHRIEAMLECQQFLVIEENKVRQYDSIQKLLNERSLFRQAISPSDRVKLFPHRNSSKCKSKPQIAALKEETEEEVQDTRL
Sphingosine 1-phosphate receptor 1, sequence (P21453 whole entry): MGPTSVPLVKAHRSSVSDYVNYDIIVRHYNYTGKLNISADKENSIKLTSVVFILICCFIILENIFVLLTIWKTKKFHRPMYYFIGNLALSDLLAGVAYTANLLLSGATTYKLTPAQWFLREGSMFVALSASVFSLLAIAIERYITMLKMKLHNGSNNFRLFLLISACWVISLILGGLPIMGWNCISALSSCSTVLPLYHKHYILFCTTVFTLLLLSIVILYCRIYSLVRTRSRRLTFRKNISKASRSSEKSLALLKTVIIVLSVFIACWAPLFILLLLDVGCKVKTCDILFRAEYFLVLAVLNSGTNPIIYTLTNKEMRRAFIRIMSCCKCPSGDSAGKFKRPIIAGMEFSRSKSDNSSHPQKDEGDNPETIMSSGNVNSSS

For `O=C(O)CSc1cc(NS(=O)(=O)c2ccc(Br)cc2)c2ccccc2c1O`, the AC50 in experiment [1] is 28.4 µM (active).

On to `O=C(CC(O)(C(F)(F)F)C(F)(F)F)Nc1ccc(Cl)c(Cl)c1`, for which the EC50 with HEK293 is listed as > 35.4 µM (not active). Further, the IC50 on Protein skinhead-1 was 19.6 µM (active).

Take `O=C(CNc1cccc2ccccc12)N/N=C/c1ccc([N+](=O)[O-])o1`: in [2], the EC50 is 0.901 µM (active). Moreover, in experiment [3], the CC50 was > 20 µM (active).

Regarding `O=C1NC(=S)N/C1=C/c1cc2c(cc1[N+](=O)[O-])OCO2`, the IC50 on Caspase-3 was 27.6 µM (active); in experiment [4], 25.4 µM (active).

Turning to `Cc1ccc(NC(=O)C2=C(c3ccccc3)S(=O)(=O)CCS2(=O)=O)cc1`, the IC50 in experiment [5] is reported as 3.72 µM (not active); in [6] it was 68.8 µM (not active). Besides, in experiment [7], the CC50 is 100 µM (active).

Usually AC50 stands for the midpoint of the concentration-response curve, whichever way the signal moves. By EC50 is commonly meant the midpoint of the concentration-response curve. The term IC50 denotes the concentration needed to halve the response being measured. A word on the CC50: it is the concentration giving 50% cytotoxicity.
